One may read the IC50 as the concentration at which inhibition is half-maximal. Low readings indicate greater potency, high ones weaker potency.

A value given as a limit tells only on which side of the number the result lay.

The target in this assay is T1, human P2X4 (Homo sapiens, UniProt Q99571).
T1 sequence (Q99571 1-388): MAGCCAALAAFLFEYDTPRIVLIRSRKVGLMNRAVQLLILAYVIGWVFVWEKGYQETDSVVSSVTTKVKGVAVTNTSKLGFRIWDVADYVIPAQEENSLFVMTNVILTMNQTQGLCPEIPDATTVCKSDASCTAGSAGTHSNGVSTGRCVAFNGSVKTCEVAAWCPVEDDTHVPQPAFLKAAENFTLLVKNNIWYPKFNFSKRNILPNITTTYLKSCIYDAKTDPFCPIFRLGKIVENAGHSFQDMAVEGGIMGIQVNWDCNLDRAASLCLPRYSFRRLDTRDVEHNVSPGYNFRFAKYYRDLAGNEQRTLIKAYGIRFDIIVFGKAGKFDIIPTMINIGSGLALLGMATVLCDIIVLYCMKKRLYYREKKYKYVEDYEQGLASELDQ
Put plainly: Human P2X4 HEK Cell FLIPR Assay. Type of assay: cell-based. To be noted: agonist Bz-ATP at EC80; for Emax: HEK293, HEK293 cells, percentage of maximal inhibition, read-out: Human P2X4 HEK Cells (FLIPR Assay) avg Efficacy [%]; for IC50: HEK293 cells, individual values listed where some fall outside detection range. Put shortly: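 HEK293 cells stably expressing human P2X4, Fluo8-AM loaded 30 min at 37° C, then compound 30 min at room temperature (0.5% DMSO, pH 7.4 buffer with 1.8 mM CaCl2). Bz-ATP at its daily-determined EC80 added; calcium fluorescence read over 120 sec; IC50 from peak RFU normalized to agonist control, triplicates.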

Turning to `NS(=O)(=O)c1cc(NC(=O)Cc2cccnc2Cl)ccc1-n1cc(F)cn1` [Example 158, 2-(2-Chloropyridin-3-yl)-N-[4-(4-fluoro-1H-pyrazol-1-yl)-3-sulfamoylphenyl]acetamide], the Emax turned out to be 89% and the IC50 was found to be 2600 nM.

In the case of `Cc1ccc(F)c(CC(=O)Nc2ccc(-n3cc(F)cn3)c(S(N)(=O)=O)c2)c1Cl` [Example 159, 2-(2-Chloro-6-fluoro-3-methylphenyl)-N-[4-(4-fluoro-1H-pyrazol-1-yl)-3-sulfamoyl-phenyl]acetamide], the Emax was determined as 82% and the IC50 stood at 12 nM.

For the molecule `NS(=O)(=O)c1cc(NC(=O)Cc2ccccc2OC(F)(F)F)ccc1-n1cc(F)cn1` [Example 160, N-[4-(4-Fluoro-1H-pyrazol-1-yl)-3-sulfamoylphenyl]-2-[2-(trifluoromethoxy)phenyl]-acetamide], the Emax was determined as 89% and the IC50 came out at 58 nM.

Consider `NS(=O)(=O)c1cc(NC(=O)Cc2cc(F)c(F)cc2Cl)ccc1-n1cc(F)cn1` [Example 161, 2-(2-Chloro-4,5-difluorophenyl)-N-[4-(4-fluoro-1H-pyrazol-1-yl)-3-sulfamoylphenyl]], for which the Emax was determined as 43% and the IC50 is greater than 25000 nM.

Consider `NS(=O)(=O)c1cc(NC(=O)Cc2cccc(C(F)(F)F)c2Cl)ccc1-n1cc(F)cn1` [Example 162, 2-[2-Chloro-3-(trifluoromethyl)phenyl]-N-[4-(4-fluoro-1H-pyrazol-1-yl)-3-sulfamoyl-phenyl]acetamide], for which the Emax amounted to 92% and the IC50 was found to be 19 nM.

On to `NS(=O)(=O)c1cc(NC(=O)Cc2cc(Cl)ccc2Cl)ccc1-n1cc(F)cn1` [Example 163, 2-(2,5-Dichlorophenyl)-N-[4-(4-fluoro-1H-pyrazol-1-yl)-3-sulfamoylphenyl]acetamide], for which the Emax turned out to be 89% and the IC50 amounted to 93 nM.

On to `NS(=O)(=O)c1cc(NC(=O)Cc2c(F)ccc(F)c2Cl)ccc1-n1cc(F)cn1` [Example 164, 2-(2-Chloro-3,6-difluorophenyl)-N-[4-(4-fluoro-1H-pyrazol-1-yl)-3-sulfamoylphenyl]-acetamide], for which the Emax was 83% and the IC50 came out at 27 nM.

Take `Cc1ccc(Cl)c(CC(=O)Nc2ccc(-n3cc(F)cn3)c(S(N)(=O)=O)c2)c1` [Example 165, 2-(2-Chloro-5-methylphenyl)-N-[4-(4-fluoro-1H-pyrazol-1-yl)-3-sulfamoylphenyl]-acetamide]: the Emax worked out at 93% and the IC50 was determined as 42 nM.

On to `Cc1cc(F)c(Br)cc1CC(=O)Nc1ccc(-n2cc(F)cn2)c(S(N)(=O)=O)c1` [Example 166, 2-(5-Bromo-4-fluoro-2-methylphenyl)-N-[4-(4-fluoro-1H-pyrazol-1-yl)-3-sulfamoylphenyl]acetamide], for which the Emax is 78% and the IC50 is 1520 nM.

As to `CC(C)c1ccccc1CC(=O)Nc1ccc(-n2cc(F)cn2)c(S(N)(=O)=O)c1` [Example 167, N-[4-(4-Fluoro-1H-pyrazol-1-yl)-3-sulfamoylphenyl]-2-(2-isopropylphenyl)acetamide], the Emax was determined as 94% and the IC50 came out at 64 nM.

Take `NS(=O)(=O)c1cc(NC(=O)Cc2cc(F)ccc2Cl)ccc1-n1cc(F)cn1` [Example 168, 2-(2-Chloro-5-fluorophenyl)-N-[4-(4-fluoro-1H-pyrazol-1-yl)-3-sulfamoylphenyl]-acetamide]: the Emax is 75% and the IC50 came out at 70 nM.

As to `NS(=O)(=O)c1cc(NC(=O)Cc2c(Cl)cccc2C(F)(F)F)ccc1-n1cc(F)cn1` [Example 169, 2-[2-Chloro-6-(trifluoromethyl)phenyl]-N-[4-(4-fluoro-1H-pyrazol-1-yl)-3-sulfamoyl-phenyl]acetamide], the Emax was found to be 86% and the IC50 amounted to 85 nM.

As to `CC(C(=O)Nc1ccc(-n2cc(F)cn2)c(S(N)(=O)=O)c1)c1c(F)cccc1F` (stereo not drawn) [Example 171, 2-(2,6-Difluorophenyl)-N-[4-(4-fluoro-1H-pyrazol-1-yl)-3-sulfamoylphenyl]-propanamide], the Emax was found to be 90% and the IC50 worked out at 2240 nM.

As to `Cc1ccc(CC(=O)Nc2ccc(-n3cc(Cl)cn3)c(S(N)(=O)=O)c2)cc1` [Example 172, N-[4-(4-Chloro-1H-pyrazol-1-yl)-3-sulfamoylphenyl]-2-(4-methylphenyl)acetamide], the Emax came to 58% and the IC50 was 48 nM.

For `Cc1ccccc1CC(=O)Nc1ccc(-n2cc(Cl)cn2)c(S(N)(=O)=O)c1` [Example 173, N-[4-(4-Chloro-1H-pyrazol-1-yl)-3-sulfamoylphenyl]-2-(2-methylphenyl)acetamide], the Emax amounted to 80% and the IC50 was 28 nM.

Regarding `Cc1cccc(CC(=O)Nc2ccc(-n3cc(Cl)cn3)c(S(N)(=O)=O)c2)c1` [Example 174, N-[4-(4-Chloro-1H-pyrazol-1-yl)-3-sulfamoylphenyl]-2-(3-methylphenyl)acetamide], the Emax came to 79% and the IC50 was 45 nM.

Regarding `CCOc1ccccc1CC(=O)Nc1ccc(-n2cc(Cl)cn2)c(S(N)(=O)=O)c1` [Example 175, N-[4-(4-Chloro-1H-pyrazol-1-yl)-3-sulfamoylphenyl]-2-(2-ethoxyphenyl)acetamide], the Emax is 88% and the IC50 was 226 nM.

For the molecule `CCOc1ccccc1CC(=O)Nc1ccc(-n2cc(C(F)(F)F)cn2)c(S(N)(=O)=O)c1` [Example 176, 2-(2-Ethoxyphenyl)-N-{3-sulfamoyl-4-[4-(trifluoromethyl)-1H-pyrazol-1-yl]phenyl}acetamide], the Emax was determined as 71% and the IC50 stood at 268 nM.

As to `NS(=O)(=O)c1cc(NC(=O)Cc2ccccc2Br)ccc1-n1cc(F)cn1` [Example 177, 2-(2-Bromophenyl)-N-[4-(4-fluoro-1H-pyrazol-1-yl)-3-sulfamoylphenyl]acetamide], the Emax worked out at 83% and the IC50 was 35 nM.

Consider `NS(=O)(=O)c1cc(NC(=O)Cc2ccc(Cl)cc2Cl)ccc1-n1cc(F)cn1` [Example 178, 2-(2,4-Dichlorophenyl)-N-[4-(4-fluoro-1H-pyrazol-1-yl)-3-sulfamoylphenyl]acetamide], for which the Emax came to 70% and the IC50 came out at 40 nM.

Regarding `NS(=O)(=O)c1cc(NC(=O)Cc2c(Cl)cccc2Cl)ccc1-n1cc(F)cn1` [Example 179, 2-(2,6-Dichlorophenyl)-N-[4-(4-fluoro-1H-pyrazol-1-yl)-3-sulfamoylphenyl]acetamide], the Emax came out at 89% and the IC50 stood at 35 nM.

On to `N#Cc1cnn(-c2ccc(NC(=O)Cc3ccccc3[N+](=O)[O-])cc2S(N)(=O)=O)c1` [Example 180, N-[4-(4-Cyano-1H-pyrazol-1-yl)-3-sulfamoylphenyl]-2-(2-nitrophenyl)acetamide], for which the Emax amounted to 77% and the IC50 is 319 nM.

On to `N#Cc1cnn(-c2ccc(NC(=O)Cc3ccc(Cl)cc3)cc2S(N)(=O)=O)c1` [Example 181, 2-(4-Chlorophenyl)-N-[4-(4-cyano-1H-pyrazol-1-yl)-3-sulfamoylphenyl]acetamide], for which the Emax turned out to be 59% and the IC50 worked out at 179 nM.

In the case of `COc1ccccc1CC(=O)Nc1ccc(-n2cc(C#N)cn2)c(S(N)(=O)=O)c1` [Example 182, N-[4-(4-Cyano-1H-pyrazol-1-yl)-3-sulfamoylphenyl]-2-(2-methoxyphenyl)acetamide], the Emax is 89% and the IC50 was found to be 161 nM.
